The supplement of paper PMC10307832

What was measured:
Experiment in all cases: relative viability (nuclei count vs DMSO), 5 days (fraction); higher = more cells survive
[1] = compound: CC1=CC(=C(N1C2=CC=C(C=C2)Cl)C)C(=O)CN3CCCCC3 [IU1-47] + O=C(c1cc(Cc2n[nH]c(=O)c3ccccc23)ccc1F)N1CCN(C(=O)C2CC2)CC1 [Olaparib] (partner 8 µM)
Outline: (§1)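 Dosing by pin tool came one day after lung cancer cell lines were seeded in 1536-well plates, using either one drug or a fixed anchor-drug dose plus five library-drug doses (not always all listed) in √10 steps. After 5 days, nuclei were counted on 4× images. Relative viability is treated-well nuclei count divided by vehicle-well nuclei count, and values are medians of duplicate plates.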

[2] = compound: Cc1nc(C(=O)NCC(=O)O)c(O)c2ccc(Oc3ccccc3)cc12 [FG-4592] + Cc1cc(Nc2cc(N3CCN(C)CC3)nc(Sc3ccc(NC(=O)C4CC4)cc3)n2)n[nH]1 [Tozasertib] (partner 0.1 µM)
Outline: as §1

[3] = compound: Cc1nc(C(=O)NCC(=O)O)c(O)c2ccc(Oc3ccccc3)cc12 [FG-4592] + Nc1ncn([C@H]2C[C@H](O)[C@@H](CO)O2)c(=O)n1 [Decitabine] (partner 2 µM)
Outline: as §1

[4] = compound: CC1=CC(=C(N1C2=CC=C(C=C2)Cl)C)C(=O)CN3CCCCC3 [IU1-47] + CS(=O)(=O)CCNCc1ccc(-c2ccc3ncnc(Nc4ccc(OCc5cccc(F)c5)c(Cl)c4)c3c2)o1 [Lapatinib] (partner 2 µM)
Outline: as §1

Cell Line | relative viability ([1]; first compound 0.08 µM) | relative viability ([1]; first compound 0.253 µM) | relative viability ([1]; first compound 0.8 µM) | relative viability ([1]; first compound 2.53 µM) | relative viability ([1]; first compound 8 µM) | relative viability ([2]; first compound 0.08 µM) | relative viability ([2]; first compound 0.253 µM) | relative viability ([2]; first compound 0.8 µM) | relative viability ([2]; first compound 2.53 µM) | relative viability ([2]; first compound 8 µM) | relative viability ([3]; first compound 0.08 µM) | relative viability ([3]; first compound 0.253 µM) | relative viability ([3]; first compound 0.8 µM) | relative viability ([3]; first compound 2.53 µM) | relative viability ([3]; first compound 8 µM) | relative viability ([4]; first compound 0.08 µM) | relative viability ([4]; first compound 0.253 µM) | relative viability ([4]; first compound 0.8 µM) | relative viability ([4]; first compound 2.53 µM) | relative viability ([4]; first compound 8 µM)
NCI-H2085 | 0.777 | 0.763 | 0.747 | 0.768 | 0.742 | 0.79 | 0.774 | 0.758 | 0.792 | 0.933 | 0.554 | 0.493 | 0.51 | 0.597 | 0.545 | 0.7 | 0.77 | 0.941 | 0.681 | 0.685
NCI-H2087 | 0.587 | 0.633 | 0.563 | 0.646 | 0.476 | 0.234 | 0.205 | 0.279 | 0.175 | 0.269 | 0.368 | 0.308 | 0.348 |  | 0.256 | 1.07 | 1.27 | 1.16 | 0.725 | 0.967
NCI-H2126 | 0.972 | 0.945 | 0.89 | 0.898 | 0.762 | 0.842 | 0.775 | 0.782 | 0.721 | 0.575 | 0.54 | 0.541 | 0.543 | 0.578 | 0.578 | 0.802 | 0.767 | 0.807 | 0.523 | 0.753
NCI-H2170 | 0.705 | 0.652 | 0.634 | 0.693 | 0.652 | 0.704 | 0.622 | 0.726 | 0.777 | 0.704 | 0.445 | 0.479 | 0.447 | 0.506 | 0.356 | 0.286 | 0.297 | 0.289 | 0.301 | 0.263
NCI-H2347 | 0.652 | 0.607 | 0.628 | 0.562 | 0.603 | 0.415 |  | 0.621 | 0.315 | 0.52 | 0.665 | 0.523 | 0.629 | 0.581 | 0.613 | 1.13 | 0.863 | 1.04 | 0.761 | 0.834
NCI-H2405 | 0.876 | 0.871 | 0.956 | 0.91 | 0.945 | 0.631 |  | 0.763 | 0.735 | 0.757 | 0.69 | 0.714 | 0.702 | 0.688 | 0.671 | 1.04 | 1.12 | 1.1 |  | 1.11
NCI-H3122 | 0.644 | 0.665 | 0.692 | 0.692 | 0.696 | 0.38 | 0.361 | 0.348 | 0.418 | 0.35 | 0.405 | 0.476 | 0.332 | 0.48 | 0.362 | 1.06 | 1.06 | 1.06 | 1.09 | 1.03
PC-3 [JPC-3] | 1.19 | 1.2 | 1.14 | 1.11 | 1.04 | 0.872 | 0.854 | 0.935 | 0.901 | 0.854 | 0.836 | 0.767 |  | 0.844 | 0.911 | 0.47 | 0.46 | 0.509 |  | 0.461
PC-14 | 0.197 | 0.308 | 0.204 | 0.238 | 0.233 | 0.674 | 0.55 | 0.651 | 0.596 | 0.682 | 0.193 | 0.243 | 0.213 | 0.195 | 0.226 | 0.273 | 0.32 | 0.407 | 0.304 | 0.304
RERF-LC-KJ | 0.867 | 0.916 | 0.894 | 0.943 | 0.789 | 0.485 | 0.448 | 0.578 | 0.543 | 0.463 | 0.811 | 0.697 | 0.76 | 0.81 | 0.667 | 0.91 | 0.868 | 0.873 | 0.835 | 0.829
SK-LU-1 | 0.663 | 0.444 | 0.462 | 0.55 | 0.388 | 0.317 | 0.331 | 0.295 | 0.31 | 0.273 | 0.66 | 0.55 | 0.671 | 0.582 | 0.476 | 0.857 | 0.967 | 0.82 | 0.822 | 0.839
SK-MES-1 | 0.823 | 0.771 | 0.664 | 0.652 | 0.786 | 0.862 | 0.872 | 0.961 | 0.862 | 0.832 | 0.369 | 0.424 | 0.419 | 0.414 | 0.385 | 0.5 | 0.503 | 0.541 | 0.465 | 0.45
SW 1573 | 0.592 | 0.462 | 0.445 | 0.453 | 0.501 | 0.205 | 0.173 | 0.207 | 0.171 | 0.198 | 0.516 | 0.505 | 0.537 | 0.482 | 0.447 | 1.08 | 1.06 | 0.894 | 0.966 | 1.16
